Measured values as given in patent US20210221817A1, “NOVEL HETEROAROMATIC COMPOUNDS AS POTENT MODULATORS OF THE HIPPO-YAP SIGNALING PATHWAY LATS1/2 KINASES” (Nivien Therapeutics Compny, priority 2018, published 2021).

Assays:
[1] = system: ABCG2 transcription in PANC1 cells; assay: ABCG2 transcription in PDAC PANC1 cells (FIG. 2); type: cell-based; conditions: 25 μM, 48-hour treatment
Description: FIG. 2 is an image showing that the LATS1/2 inhibitors of the invention reduce transcription of ABCG2, a critical multidrug efflux transporter, in PDAC PANC1 cells. The y-axis is the normalized transcription level of ABCG2. The bar labeled ABCG2_control represents PANC1 cells that received no treatment. The bar labeled ABCG2_201 represents PANC1 cells treated with 4-(6-(4-(2-morpholinoethoxy)phenyl)imidazo[1,2-b]pyridazin-3-yl)benzamide (compound 1) at 25 μM. The bar labeled ABCG2_206 represents cells treated with 4-(6-(piperazin-1-yl)imidazo[1,2-b]pyridazin-3-yl)benzamide (compound 2) 25 μM.

LATS1/2 = molecular target: T1, LATS1/2; assay: TR-FRET LanthaScreen binding assay; conditions: LATS1 (aa 589-1130), LATS2 (aa 488-1080), kinase tracer 236
T1 construct: LATS1 (amino acids 589-1130; ThermoFisher, PV6363), LATS2 (amino acids 488-1080; fused on or other part: GST tag, inferred from the LanthaScreen Eu-anti-GST antibody and the ThermoFisher products
Description: IC50 scores were determined using a TR-FRET LanthaScreen binding assay using LATS1 (amino acids 589-1130; ThermoFisher, PV6363), LATS2 (amino acids 488-1080; ThermoFisher, PV6366); kinase tracer 236 (ThermoFisher, PV5592); LanthaScreen Eu-anti-GST (ThermoFisher, PV3189); 5× kinase buffer A (ThermoFisher, PV6135); low-volume 384-well plate format.

[2] = system: YAP phosphorylation in PANC1 cells; assay: YAP phosphorylation in PDAC PANC1 cells (FIG. 1); type: cell-based; conditions: 48 h; for overall YAP levels / p-YAP levels (YAP phosphorylation): 5 μM and 25 μM
Description: FIG. 1 is an image showing that the LATS1/2 inhibitors of the invention reduce YAP phosphorylation in PDAC PANC1 cells in a dose-dependent manner. FIG. 1 consists of two columns. On the left: the cells were treated with control and 5 μM of each of the compounds of the invention. Control in lane “C.” In lane “1” is 4-(6-(4-(2-morpholinoethoxy)phenyl)imidazo[1,2-b]pyridazin-3-yl)benzamide (compound 1). In lane “2” is 4-(6-(3-aminopiperidin-1-yl)imidazo[1,2-b]pyridazin-3-yl)benzamide (compound 3). In lane “4” is 4-(6-(4-aminopiperidin-1-yl)imidazo[1,2-b]pyridazin-3-yl)benzamide (compound 4). In lane “6” is 4-(6-(piperazin-1-yl)imidazo[1,2-b]pyridazin-3-yl)benzamide (compound 2). In lane “7” is 4-(4-(4-(4-chlorophenyl)piperidin-4-yl)phenyl)-3-methyl-1H-pyrazolo[4,3-c]pyridine (compound 5).
(§1) On the left: the cells were treated with control and 25 μM of each of the compounds of the invention. Control in lane “C.” In lane “1” is 4-(6-(4-(2-morpholinoethoxy)phenyl)imidazo[1,2-b]pyridazin-3-yl)benzamide (compound 1). In lane “2” is 4-(6-(3-aminopiperidin-1-yl)imidazo[1,2-b]pyridazin-3-yl)benzamide (compound 3). In lane “4” is 4-(6-(4-aminopiperidin-1-yl)imidazo[1,2-b]pyridazin-3-yl)benzamide (compound 4). In lane “6” is 4-(6-(piperazin-1-yl)imidazo[1,2-b]pyridazin-3-yl)benzamide (compound 2). In lane “7” is 4-(4-(4-(4-chlorophenyl)piperidin-4-yl)phenyl)-3-methyl-1H-pyrazolo[4,3-c]pyridine (Compound 5).
(§2) YAP is stained for Yes-associated protein; p-YAP is stained for phosphorylated Yes-associated protein; GAPDH is a standard protein loading control.

PANC1 cells = assay: Killing of PANC1 cells observed in the FIG. 1 experiment; type: cell-based; conditions: higher dose (25 μM)
Description: as §1, §2

| SMILES | ABCG2 transcription levels [1] | IC50 (LATS1/2) | overall YAP levels [2] | p-YAP levels (YAP phosphorylation) [2] | killing of PANC1 cells at the higher dose (PANC1 cells) | p-YAP levels at the lower dose ([2]; lower dose (5 μM)) |
| --- | --- | --- | --- | --- | --- | --- |
| NC(=O)c1ccc(-c2cnc3ccc(-c4ccc(OCCN5CCOCC5)cc4)nn23)cc1 [Compound 1, 4-(6-(4-(2-Morpholinoethoxy)phenyl)imidazo[1,2-b]pyridazin-3-yl)benzamide] | reduce ABCG2 transcription levels | 10 to 1000 nM | without impacting overall YAP levels | reduce p-YAP levels |  |  |
| NC(=O)c1ccc(-c2cnc3ccc(N4CCNCC4)nn23)cc1 [Compound 2, 4-(6-(piperazin-1-yl)imidazo[1,2-b]pyridazin-3-yl)benzamide] | reduce ABCG2 transcription levels | 0.1 to 50 nM | without impacting overall YAP levels | reduce p-YAP levels |  |  |
| NC(=O)c1ccc(-c2cnc3ccc(N4CCCC(N)C4)nn23)cc1 (stereo not shown) [Compound 3, 4-(6-(3-Aminopiperidin-1-yl)imidazo[1,2-b]pyridazin-3-yl)benzamide] |  | 0.1 to 50 nM |  |  |  |  |
| NC(=O)c1ccc(-c2cnc3ccc(N4CCC(N)CC4)nn23)cc1 [Compound 4, 4-(6-(4-Aminopiperidin-1-yl)imidazo[1,2-b]pyridazin-3-yl)benzamide] |  | 0.1 to 50 nM |  |  |  |  |
| Cc1n[nH]c2ccnc(-c3ccc(C4(c5ccc(Cl)cc5)CCNCC4)cc3)c12 [Compound 5, 4-(4-(4-(4-chlorophenyl)piperidin-4-yl)phenyl)-3-methyl-1H-pyrazolo[4,3-c]pyridine] |  | 0.1 to 50 nM |  |  | killed all PANC1 cells | reduced p-YAP levels |
